Values quoted from earlier work, collected in US20030194514A1 (priority 2002, published 2003).

What was measured:
[1] = especially at a dilution level of 20-30%; cited from earlier work
[2] = diluent level of 15%; cited from earlier work
[3] = per Brit. 1,132,417; cited from earlier work

Compound | Judgement as stabilizer in confinement tests [1] | Judgement as stabilizer for propargyl bromide by impact tests [2] | Effectiveness of the solvent in stabilizing propargyl bromide [3]
Cc1ccccc1 [toluene] | material of choice |  | 
ClC(Cl)Cl [chloroform] |  | poor stabilizers | ineffective
CCOCC [diethyl ether] |  | appeared promising | 
CCO [ethanol] |  |  | effective
CCCCCC [hexane] |  | poor stabilizers | ineffective
C1CCOC1 [tetrahydrofuran] |  |  | effective
C1COCCO1 [dioxane] |  |  | effective
NC=O [formamide] |  | poor stabilizers | ineffective
CC(C)OC(C)C [diisopropyl ether] |  | appeared promising | 
xylene |  |  | effective
c1ccccc1 [benzene] |  | poor stabilizers | 
